# Reference: patent US9763915B2, “Adjuvants in anti-cancer chemotherapy” (PharmOxaco SáRL, priority 2013, dated 2017)
# Where “and” joins values, the source holds several entries; their conditions need not be identical. Equal entries are not always repeated.
# Key:
# [1] = test system: human follicular lymphoma cell line (DoHH2); test: Annexin V apoptosis assay, follicular lymphoma cell line DoHH2; type: cell-based; settings: DoHH2, 48 hours, 25 μM alone
# Description: (§1) Next the cells were cultivated in the same way, but in the combined presence of dasatinib (25 μM) and the individual trioxanes T16, T45, and T7 in concentrations of 1.0 and 10 μM (see Tables below). As mentioned above, the Annexin V apoptosis assay was used to detect the Annexin V protein on cells undergoing apoptosis. Dead cells (post-apoptopic) were determined by positivity toward propidium iodide. The percentages of apoptopic, post-apoptopic cells, and their total are shown for each test. […] Synergy is noted as moderate (*), high (**), or exceptionally high (***).
# Human Follicular Lymphoma (DoHH2)
# [2] = test system: human Burkitt's lymphoma cell line (Raji); test: Annexin V apoptosis assay, Burkitt's lymphoma cell line Raji; type: cell-based; settings: 48 hours, 25 μM alone
# Description: as §1
# Human Burkitt's Lymphoma (Raji)
# [3] = test system: MCF-7 breast cancer cell line; test: Annexin V apoptosis assay, poorly proliferating MCF-7 breast cancer cells; settings: MCF-7, 48 hours, vehicle baseline 13-18%
# Description: (§2) The same experimental set-up was also utilized to test the synergistic capacity of trioxane T59 with imatinib.
# (§3) The test read-out was the Annexin V apoptosis assay kit from Becton-Dickinson, which detects the presence of the Annexin V protein on the surface of cells undergoing apoptosis and positivity toward propidium iodide for dead cells.
# [4] = test system: MDA-468 breast cancer cell line; test: Annexin V apoptosis assay, fast proliferating MDA-468 breast cancer cells; settings: MDA-468, 48 hours, vehicle baseline 13-18%
# Description: as §2, §3
# CD® rats = test: Two-week toxicity study in CD rats; type: in vivo
# Description: As a bellwether, the toxicity of trioxane T7 has been evaluated and compared with that of artemether in CD® rats following two weeks of oral administration (gavage) and intramuscular injection, respectively. Trioxane T7 was administered at doses of 0, 15, 30, and 60 mg/kg/day in Lipomul® emulsion, while artemether was dosed at 0, 10, 20, and 40 mg/kg/day.
# rats [5] = settings: Brewer et al. 1994; cited from earlier work
# dogs = settings: Brewer et al. 1994; cited from earlier work
# rats [6] = test: Further testing in a group of rats (mortality); settings: 40 mg/kg/day
smiles,measurement,setting,value
"Cc1nc(Nc2ncc(C(=O)Nc3c(C)cccc3Cl)s2)cc(N2CCN(CCO)CC2)n1 [Dasatinib, dasatinib]","Apoptopic Cells, in %",[1],4.58%
same,"Post-apoptopic Cells, in %",[1],11.76%
same,"Total Dead Cells, in %",[1]; vehicle baseline 13-18%,16.34%
same,"Apoptopic Cells, in %",[2],7.9%
same,"Post-apoptopic Cells, in %",[2],15.18%
same,"Total Dead Cells, in %",[2]; vehicle baseline 13-18%,23.15%
"Cc1ccc(NC(=O)c2ccc(CN3CCN(C)CC3)cc2)cc1Nc1nccc(-c2cccnc2)n1 [Imatinib, imatinib]",percentage of dead cells (dead+apoptotic),[3]; 10 μM alone,14.05% and 14.15%
same,percentage of dead cells (dead+apoptotic),[4]; 10 μM alone,13.60% and 13.16%
"Oc1ccc(C=Cc2cc(O)cc(O)c2)cc1 [Resveratrol, resveratrol]",percentage of dead cells (dead+apoptotic),[3]; 1 μM alone,16.05%
same,percentage of dead cells (dead+apoptotic),[4]; 1 μM alone,11.30%
CO[C@H]1O[C@@H]2O[C@@]3(C)CC[C@H]4[C@H](C)CC[C@@H]([C@H]1C)[C@@]24OO3 [artemether],toxic effects,"CD® rats; two weeks intramuscular injection, 10, 20, 40 mg/kg/day","CNS excitability, neuronal chromatolysis, and gliosis in the brain stem"
same,toxic effects at mid-dose,"CD® rats; two weeks intramuscular injection, mid-dose (of 10, 20, 40 mg/kg/day)","neurotoxic manifestations were observed, including hematoxicity and hepatotoxicity"
same,reported toxicity,rats [5],neurotoxicity
same,reported toxicity,dogs,neurotoxicity
same,mortality,rats [6],killed most of the rats
